Experimental findings from US12473291B2 (priority 2019, dated 2025) are described below.

Each structure is given as a SMILES string. Like-named read-outs stand apart in the source and are kept apart here.

The subject of experiment [1] is KM mice. Briefly: animal or person. The following applies: for 2ED50 duration / 2ED50 recovery time / Quality of recovery: KM mice; for 2ED50 duration / 2ED50 recovery time: single tail vein injection at 2×ED50; for 2ED50 duration: time from disappearance to recovery of righting reflex; for 2ED50 recovery time: time from recovery of righting reflex to free crawling; for Quality of recovery: tail vein injection; for ED50: KM mice (male, 18-22 g), injection via the tail vein, disappearance of righting reflex; for duration and recovery time compared with remimazolam / effective dose compared with remimazolam: mice, tail vein, in words. In kind it is in vivo.

Experiment [2] relates to SD rats. Briefly: animal or person. In kind it is in vivo. The settings on record: for ED50: SD rats (male, 220-300 g), injection via the tail vein, disappearance of righting reflex; for 2ED50 duration / 2ED50 recovery time / Quality of recovery: SD rats; for 2ED50 duration / 2ED50 recovery time: single tail vein injection at 2×ED50; for 2ED50 duration: time from disappearance to recovery of righting reflex; for 2ED50 recovery time: time from recovery of righting reflex to free crawling; for Quality of recovery: tail vein injection; for duration and recovery time compared with remimazolam / effective dose compared with remimazolam: rats, tail vein, in words.

The mark [3] stands for this setting: Rattus norvegicus, read-out: ED50.

In the case of `Cc1cnc2n1-c1ccc(Br)cc1C(c1ccccn1)=N[C@H]2CCC(=O)OCOC(=O)OC(C)C` [Example 48], in experiment [1], the 2ED50 duration stood at 8.56 min, the 2ED50 recovery time is on record as 2.48 min and the Quality of recovery entry was “++++ (“++++” means 5-10 min)”. In addition, the median effective dose (ED50) in experiment [1] (Mus musculus, read-out: ED50) was determined as 27 mg/kg. The ED50 in experiment [2] (setting [3]) was 5.3 mg/kg. In addition, in experiment [2], the “2ED50 duration” value amounted to 4.16 min, the 2ED50 recovery time is reported as 2.42 min and the Quality of recovery result is given as “+++ (“+++” means 3-5 min)”.
Turning to `Cc1cnc2n1-c1cc(Br)c(Br)cc1C(c1ccccn1)=N[C@H]2CCC(=O)OC(C)OC(=O)OC(C)C` (stereo partly drawn) [Example 17], in experiment [1], the 2ED50 duration was determined as 4.39 min, the 2ED50 recovery time amounted to 2.53 min and the Quality of recovery entry is “++ (“++” means 1-3 min)”. Further, the ED50 in experiment [1] (Mus musculus, read-out: ED50) was found to be 29.2 mg/kg. The ED50 in experiment [2] (setting [3]) is 4.3 mg/kg. In experiment [2], the “2ED50 duration” value came to 4.39 min, the 2ED50 recovery time was determined as 2.43 min and the Quality of recovery entry is reported as “++ (“++” means 1-3 min)”.
With `CC(=O)O.COC(=O)C1(OC(=O)CC[C@@H]2N=C(c3ccccn3)c3cc(Cl)c(OC(F)(F)F)cc3-n3c(C)cnc32)CC1` [Example 42], in experiment [1], the ED50 is listed as 8.7 mg/kg, the 2ED50 duration stood at 0.58 min, the 2ED50 recovery time is listed as 0.53 min and the Quality of recovery entry is reported as “+ (“+” means <1 mm)”. In experiment [1], the “duration and recovery time compared with remimazolam” value is reported as “significantly shorter”; the “effective dose compared with remimazolam” value is given as “significantly lower”. In experiment [2], the 50% effective dose (ED50) is recorded as 4.7 mg/kg, the “2ED50 duration” value is on record as 0.51 min, the 2ED50 recovery time is recorded as 0.31 min and the Quality of recovery result is “+ (“+” means <1 min)”. For the same compound, in experiment [2], the “duration and recovery time compared with remimazolam” value was “significantly shorter”; the “effective dose compared with remimazolam” value was “significantly lower”.
Take `CCC(CC)OC(=O)OCOC(=O)CC[C@@H]1N=C(c2ccccn2)c2cc(Br)ccc2-n2c(C)cnc21` [Example 50]: in experiment [1], the 2ED50 duration amounted to 7.84 min, the 2ED50 recovery time is reported as 1.47 min and the Quality of recovery result is given as “++ (“++” means 1-3 min)”. In addition, the 50% effective dose (ED50) in experiment [1] (Mus musculus, read-out: ED50) came to 24.6 mg/kg. The 50% effective dose (ED50) in experiment [2] (setting [3]) was 6.3 mg/kg. Moreover, in experiment [2], the “2ED50 duration” value was determined as 3.56 min, the 2ED50 recovery time is 2.41 min and the Quality of recovery entry is listed as “++ (“++” means 1-3 min)”.
In the case of `CCOC(=O)OCOC(=O)CC[C@@H]1N=C(c2ccccn2)c2ccc(Cl)cc2-n2c(C)cnc21` [Example 36], in experiment [1], the 2ED50 duration is recorded as 4.34 min, the 2ED50 recovery time was determined as 1.49 min and the Quality of recovery result is given as “+++ (“+++” means 3-5 min)”. Besides, in experiment [1] (Mus musculus, read-out: ED50), the ED50 amounted to 27.8 mg/kg. Moreover, the ED50 in experiment [2] (setting [3]) was determined as 2.8 mg/kg. In addition, in experiment [2], the “2ED50 duration” value was 3.14 min, the 2ED50 recovery time came to 2.39 min and the Quality of recovery entry is reported as “+++ (“+++” means 3-5 min)”.
Consider `COC(=O)C1(OC(=O)CC[C@@H]2N=C(c3ccccn3)c3cc(Br)ccc3-n3c(C)cnc32)CC1` [Example 58, Methyl 1-((3-((4S)-8-bromo-1-methyl-6-(pyridine-2-yl)-4H-benzo[f]imidazo [1,2-a][1,4]diaza-4-yl)propionyl)oxy) cyclopropane-1-carboxylate], for which, in experiment [1], the 2ED50 duration is recorded as 3.18 min, the 2ED50 recovery time amounted to 1.41 min and the Quality of recovery result is listed as “+++ (“+++” means 3-5 min)”. In experiment [1] (Mus musculus, read-out: ED50), the ED50 was determined as 28 mg/kg. The ED50 in experiment [2] (setting [3]) came out at 5.6 mg/kg. Besides, in experiment [2], the “2ED50 duration” value amounted to 5.09 min, the 2ED50 recovery time is given as 3.01 min and the Quality of recovery result is given as “+++ (“+++” means 3-5 min)”.
Regarding `COC(=O)C(C)(C)OC(=O)CC[C@@H]1N=C(c2ccccn2)c2cc(Br)c(Cl)cc2-n2c(C)cnc21` [Example 24], in experiment [1], the 2ED50 duration worked out at 1.50 min; the 2ED50 recovery time was determined as 1.02 min; the “duration and recovery time compared with remimazolam” value is listed as “significantly shorter”; the “effective dose compared with remimazolam” value is “significantly lower”. Besides, the 50% effective dose (ED50) in experiment [1] (Mus musculus, read-out: ED50) came out at 12 mg/kg. In addition, in experiment [2] (setting [3]), the ED50 came to 6.8 mg/kg. For the same compound, in experiment [2], the “2ED50 duration” value came to 0.50 min; the 2ED50 recovery time amounted to 0.47 min; the Quality of recovery entry is on record as “+ (“+” means <1 min)”; the “duration and recovery time compared with remimazolam” value is on record as “significantly shorter”. Besides, the “effective dose compared with remimazolam” value in experiment [2] was “significantly lower”.
As to `Cc1cnc2n1-c1cc(Br)c(Br)cc1C(c1ccccn1)=N[C@H]2CCC(=O)OCOC(=O)OC(C(C)C)C(C)C` [Example 14], in experiment [1], the 2ED50 duration was determined as 6.42 min, the 2ED50 recovery time came out at 2.29 min and the Quality of recovery entry is listed as “+++ (“+++” means 3-5 min)”. In addition, the 50% effective dose (ED50) in experiment [1] (Mus musculus, read-out: ED50) stood at 32 mg/kg. In addition, in experiment [2] (setting [3]), the 50% effective dose (ED50) came out at 6.9 mg/kg. Also, in experiment [2], the “2ED50 duration” value is 5.06 min, the 2ED50 recovery time amounted to 2.39 min and the Quality of recovery entry is “++ (“++” means 1-3 min)”.
As for `COC(=O)C1(OC(=O)CC[C@@H]2N=C(c3ccccn3)c3cc(Cl)c(Cl)c(Cl)c3-n3c(C)cnc32)CC1` [Example 46], in experiment [1], the 2ED50 duration was determined as 1.21 min, the 2ED50 recovery time was 1.08 min and the Quality of recovery result is “+++ (“+++” means 3-5 min)”. Further, the ED50 in experiment [1] (Mus musculus, read-out: ED50) was found to be 32 mg/kg. Besides, the median effective dose (ED50) in experiment [2] (setting [3]) was 6.3 mg/kg. Moreover, in experiment [2], the “2ED50 duration” value was found to be 3.17 min; the 2ED50 recovery time was determined as 2.28 min; the Quality of recovery entry is listed as “+ (“+” means <1 min)”; the “duration and recovery time compared with remimazolam” value is listed as “significantly shorter”. Further, in experiment [2], the “effective dose compared with remimazolam” value is reported as “significantly lower”.
For `COC(=O)C(CC(F)C(C)(C)OC(=O)CC[C@@H]1N=C(c2ccccn2)c2cc(Br)c(OC)cc2-n2c(C)cnc21)OC` (stereo partly drawn) [Example 67, Methyl 5-((3-((4S)-8-bromo-9-methoxy-1-methyl-6-(pyridine-2-yl)-4H-benzo [f]imidazo[1,2-a][1,4]diazapin-4-yl)propionyl)oxy)-4-fluoro-2-methoxy-5-hexanoate adipate], the 2ED50 duration was found to be 2.58 min in experiment [1] and 3.18 min in experiment [2]. Besides, the 2ED50 recovery time in experiment [1] is 2.38 min; in experiment [2] it was 3.01 min. The values for the Quality of recovery entry in experiment [1] and in experiment [2] were “++ (“++” means 1-3 min)” and “+++ (“+++” means 3-5 min)”, respectively. For the same compound, the ED50 was determined as 31.7 mg/kg in experiment [1] (Mus musculus, read-out: ED50) and 6.9 mg/kg in experiment [2] (setting [3]).
With `COC(=O)COC(=O)CC[C@@H]1N=C(c2ccccn2)c2cc(F)c(OC)cc2-n2c(C)cnc21` [Example 27], in experiment [1], the 2ED50 duration is 1.46 min; the 2ED50 recovery time was determined as 1.20 min; the “duration and recovery time compared with remimazolam” value was “significantly shorter”; the “effective dose compared with remimazolam” value was “significantly lower”. The 50% effective dose (ED50) in experiment [1] (Mus musculus, read-out: ED50) is 15.3 mg/kg. For the same compound, the ED50 in experiment [2] (setting [3]) amounted to 6.3 mg/kg. Also, in experiment [2], the “2ED50 duration” value came to 1.16 min; the 2ED50 recovery time is reported as 1.05 min; the Quality of recovery result is recorded as “+ (“+” means <1 min)”; the “duration and recovery time compared with remimazolam” value is “significantly shorter”. Further, the “effective dose compared with remimazolam” value in experiment [2] is “significantly lower”.
On to `Cc1cc2c(c(C)c1C)C(c1ccccn1)=N[C@@H](CCC(=O)OCC(=O)OC(C)C)c1ncc(C)n1-2` [Example 76, 2-Isopropoxy-2-oxoethyl-3-(((4S)-1,7,8,9-tetramethyl-6-(pyridine-2-yl)-4H-benzo[f]imidazo[1,2-a][1,4]diaza-4-ylpropionate phosphate], for which the figures for the 2ED50 duration in experiment [1] and in experiment [2] were 3.28 min and 2.47 min, respectively. Also, the 2ED50 recovery time in experiment [1] is listed as 2.49 min; in experiment [2], 2.23 min. Further, the Quality of recovery result was “++++ (“++++” means 5-10 min)” in experiment [1] and “+++ (“+++” means 3-5 min)” in experiment [2]. The 50% effective dose (ED50) came out at 27.8 mg/kg in experiment [1] (Mus musculus, read-out: ED50) and 6.3 mg/kg in experiment [2] (setting [3]).
On to `Cc1cnc2n1-c1ccc(Br)cc1C(c1ccccn1)=N[C@H]2CCC(=O)OC(C)OC(=O)OC(C)C` (stereo partly drawn) [Example 55], for which, in experiment [1], the 2ED50 duration came out at 4.65 min; the 2ED50 recovery time was found to be 1.29 min; the “duration and recovery time compared with remimazolam” value was “significantly shorter”; the “effective dose compared with remimazolam” value is on record as “significantly lower”. Further, the 50% effective dose (ED50) in experiment [1] (Mus musculus, read-out: ED50) turned out to be 28.1 mg/kg. Also, the ED50 in experiment [2] (setting [3]) worked out at 5.2 mg/kg. Moreover, in experiment [2], the “2ED50 duration” value amounted to 3.28 min; the 2ED50 recovery time is listed as 2.51 min; the Quality of recovery entry is listed as “+ (“+” means <1 min)”; the “duration and recovery time compared with remimazolam” value is “significantly shorter”. In experiment [2], the “effective dose compared with remimazolam” value is reported as “significantly lower”.
Regarding `CCOC(=O)OCOC(=O)CC[C@@H]1N=C(c2ccccn2)c2cc(Br)c(Br)cc2-n2c(C)cnc21` [Example 9], in experiment [1], the 2ED50 duration is 5.48 min, the 2ED50 recovery time is 2.07 min and the Quality of recovery entry is reported as “++++ (“++++” means 5-10 min)”. The 50% effective dose (ED50) in experiment [1] (Mus musculus, read-out: ED50) was 31.6 mg/kg. Also, the ED50 in experiment [2] (setting [3]) stood at 5.6 mg/kg. Moreover, in experiment [2], the “2ED50 duration” value is 4.12 min, the 2ED50 recovery time amounted to 2.57 min and the Quality of recovery entry is recorded as “+++ (“+++” means 3-5 min)”.
As for `Cc1cnc2n1-c1cc(C(F)(F)F)c(Cl)cc1C(c1cccnc1)=N[C@H]2CCC(=O)OCOC(=O)OC(C)C` [Example 32], in experiment [1], the 2ED50 duration stood at 4.34 min, the 2ED50 recovery time is 2.01 min and the Quality of recovery entry is recorded as “++++ (“++++” means 5-10 min)”. In addition, in experiment [1] (Mus musculus, read-out: ED50), the 50% effective dose (ED50) was found to be 31.1 mg/kg. Moreover, in experiment [2] (setting [3]), the ED50 is 3.1 mg/kg. Further, in experiment [2], the “2ED50 duration” value came to 3.34 min, the 2ED50 recovery time turned out to be 2.41 min and the Quality of recovery result was “+++ (“+++” means 3-5 min)”.
